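Tested at 5 concentrations; 48 h exposure; 96-well plates; endpoints linearly interpolated, else capped at highest concentration. GI50 marks 50% less growth.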 Activity calls are given as the source filed them. Cut-off read from the data, not from the text of the source: active = GI50 up to about 1.1 µM and inactive = higher.
Key:
Experiment in all cases: inhibition of tumour cell growth, NCI panel, 48 h
[1] = test system: A549
[2] = test system: MOLT-4
[3] = test system: SN12C
[4] = test system: SK-MEL-2
[5] = test system: OVCAR-8
[6] = test system: UO-31
[7] = test system: CAKI-1
[8] = test system: SNB-19
[9] = test system: TK-10
[10] = test system: HCT-116
[11] = test system: A498
[12] = test system: EKVX
[13] = test system: COLO 205
[14] = test system: HT-29
[15] = test system: M14
[16] = test system: KM12
[17] = test system: HOP-92
[18] = test system: SR

| SMILES | GI50 [1] | GI50 [2] | GI50 [3] | GI50 [4] | GI50 [5] | GI50 [6] | GI50 [7] | GI50 [8] | GI50 [9] | GI50 [10] | GI50 [11] | GI50 [12] | GI50 [13] | GI50 [14] | GI50 [15] | GI50 [16] | GI50 [17] | GI50 [18] |
| --- | --- | --- | --- | --- | --- | --- | --- | --- | --- | --- | --- | --- | --- | --- | --- | --- | --- | --- |
| COc1ccc(/C=C2\CCCC(C(NO)c3ccc(OC)cc3)C2=NO)cc1 (stereo not given) | 44.5 µM (inactive) | 23.1 µM (inactive) | 39.3 µM (inactive) | 85.1 µM (inactive) | 40.5 µM (inactive) | 28.8 µM (inactive) | 49 µM (inactive) | 61.4 µM (inactive) | 66.1 µM (inactive) | 35.8 µM (inactive) | 36.1 µM (inactive) | 48.8 µM (inactive) | 44.3 µM (inactive) | 72.1 µM (inactive) | 39.7 µM (inactive) | 89.5 µM (inactive) | – | – |
| Cc1ccc2nc3cc(C)c(=O)cc-3sc2c1 | 53.5 µM (inactive) | 11.8 µM (inactive) | > 100 µM (inactive) | > 100 µM (inactive) | 56 µM (inactive) | 67.3 µM (inactive) | 39.7 µM (inactive) | > 100 µM (inactive) | > 100 µM (inactive) | > 100 µM (inactive) | – | > 100 µM (inactive) | 94.8 µM (inactive) | > 100 µM (inactive) | > 100 µM (inactive) | 54.1 µM (inactive) | > 100 µM (inactive) | 17 µM (inactive) |
| CC(=O)O[C@H]1C(=O)[C@@]2(C)C(C(OC(=O)c3ccccc3)[C@]3(O)CC(OC(=O)C(O)C(NC(=O)c4ccc(C(F)(F)F)cc4)c4ccccc4)C(C)=C1C3(C)C)[C@]1(OC(C)=O)CO[C@@H]1C[C@@H]2O (stereo not given in full) | 0.218 µM (active) | 0.0324 µM (active) | 0.159 µM (active) | 0.0914 µM (active) | 0.161 µM (active) | – | 0.076 µM (active) | 0.861 µM (active) | 1.95 µM (inactive) | 0.05 µM (active) | 1.19 µM (inactive) | – | 0.0706 µM (active) | 0.0565 µM (active) | 0.0682 µM (active) | 0.0611 µM (active) | 2.13 µM (inactive) | 0.0264 µM (active) |
| O=C(O)Cc1cc(=O)oc2cc(O)c(Cl)cc12 | > 100 µM (inactive) | > 100 µM (inactive) | > 100 µM (inactive) | > 100 µM (inactive) | > 100 µM (inactive) | – | > 100 µM (inactive) | > 100 µM (inactive) | > 100 µM (inactive) | > 100 µM (inactive) | > 100 µM (inactive) | > 100 µM (inactive) | > 100 µM (inactive) | > 100 µM (inactive) | > 100 µM (inactive) | > 100 µM (inactive) | > 100 µM (inactive) | – |
| CC/C(CC(=O)CCC(=O)Nc1ccc(C)c(C)c1)=N\NC(=O)C(N)=O | > 100 µM (inactive) | > 100 µM (inactive) | > 100 µM (inactive) | – | > 100 µM (inactive) | > 100 µM (inactive) | > 100 µM (inactive) | > 100 µM (inactive) | > 100 µM (inactive) | > 100 µM (inactive) | > 100 µM (inactive) | > 100 µM (inactive) | > 100 µM (inactive) | > 100 µM (inactive) | > 100 µM (inactive) | – | > 100 µM (inactive) | > 100 µM (inactive) |
| Cc1c(N2CCN(C)CC2)nc2ccc(Cl)cc2c1-c1ccccc1 | 18.4 µM (inactive) | > 10 µM (inactive) | 14.7 µM (inactive) | 17.3 µM (inactive) | 16.6 µM (inactive) | 16.5 µM (inactive) | 17.3 µM (inactive) | 25.2 µM (inactive) | > 10 µM (inactive) | 17.8 µM (inactive) | 12.2 µM (inactive) | 17.7 µM (inactive) | 16.1 µM (inactive) | 14.3 µM (inactive) | 18.5 µM (inactive) | 12.4 µM (inactive) | – | 17.9 µM (inactive) |
| O=S(=O)(NCn1ccc2ccccc21)c1ccccc1 | > 100 µM (inactive) | > 100 µM (inactive) | > 100 µM (inactive) | > 100 µM (inactive) | > 76.2 µM (inactive) | > 100 µM (inactive) | – | > 31.6 µM (inactive) | > 100 µM (inactive) | 49.3 µM (inactive) | > 100 µM (inactive) | > 100 µM (inactive) | > 79.8 µM (inactive) | 37 µM (inactive) | > 100 µM (inactive) | > 60.7 µM (inactive) | > 100 µM (inactive) | 31.6 µM (inactive) |
| Cc1ccc(NC(=O)CC(=O)n2nc(-c3ccccc3)c(/N=N\c3ccccc3[N+](=O)[O-])c2-c2ccccc2)cc1 | 90.2 µM (inactive) | > 100 µM (inactive) | > 100 µM (inactive) | > 100 µM (inactive) | 67.5 µM (inactive) | > 100 µM (inactive) | 69.7 µM (inactive) | 56.6 µM (inactive) | > 100 µM (inactive) | 70.3 µM (inactive) | – | > 100 µM (inactive) | > 100 µM (inactive) | > 100 µM (inactive) | > 100 µM (inactive) | > 100 µM (inactive) | 28.2 µM (inactive) | > 100 µM (inactive) |
| COP(=O)(OC)/C(=N\Nc1ccc([N+](=O)[O-])cc1)NCc1ccccc1 | 31.3 µM (inactive) | 25.8 µM (inactive) | – | 23 µM (inactive) | 30.5 µM (inactive) | – | 38.6 µM (inactive) | – | 30 µM (inactive) | 21 µM (inactive) | – | – | 46.3 µM (inactive) | 43.3 µM (inactive) | 21.4 µM (inactive) | 24.5 µM (inactive) | 18.8 µM (inactive) | 20.3 µM (inactive) |
| CS(=O)(=O)N(CCC#N)c1ccc(C=O)cc1 | > 100 µM (inactive) | 92.7 µM (inactive) | > 100 µM (inactive) | > 100 µM (inactive) | > 100 µM (inactive) | > 100 µM (inactive) | > 100 µM (inactive) | > 100 µM (inactive) | – | > 100 µM (inactive) | > 100 µM (inactive) | > 100 µM (inactive) | – | > 100 µM (inactive) | > 100 µM (inactive) | > 100 µM (inactive) | – | > 100 µM (inactive) |
| CC(=O)/C=C\C1CC2C=CC1C2 (stereo not given) | 67.1 µM (inactive) | 20.8 µM (inactive) | 26.7 µM (inactive) | 49.2 µM (inactive) | 36.3 µM (inactive) | 41 µM (inactive) | – | 53.5 µM (inactive) | 86.5 µM (inactive) | 15.2 µM (inactive) | – | 64.9 µM (inactive) | 37.6 µM (inactive) | – | 33.7 µM (inactive) | 32.3 µM (inactive) | 29.2 µM (inactive) | – |
| O=C1NC2C(=O)N(Cc3ccccc3)C(=O)C2N1 (stereo not given) | > 100 µM (inactive) | > 100 µM (inactive) | > 100 µM (inactive) | – | – | > 100 µM (inactive) | > 100 µM (inactive) | > 100 µM (inactive) | > 100 µM (inactive) | > 100 µM (inactive) | > 100 µM (inactive) | > 100 µM (inactive) | > 100 µM (inactive) | > 100 µM (inactive) | 37.8 µM (inactive) | > 100 µM (inactive) | > 100 µM (inactive) | > 100 µM (inactive) |
| CC(=O)NC(CCCNC(=O)OCc1ccccc1)C(=O)O (stereo not given) | > 100 µM (inactive) | > 100 µM (inactive) | > 100 µM (inactive) | > 100 µM (inactive) | > 100 µM (inactive) | > 100 µM (inactive) | > 100 µM (inactive) | > 100 µM (inactive) | > 100 µM (inactive) | > 100 µM (inactive) | > 100 µM (inactive) | > 100 µM (inactive) | > 100 µM (inactive) | > 100 µM (inactive) | > 100 µM (inactive) | > 100 µM (inactive) | > 100 µM (inactive) | – |
| NN=C1/C(=C\c2ccccc2)CCC/C1=C/c1ccccc1 | 33.3 µM (inactive) | 17.9 µM (inactive) | 27 µM (inactive) | 36.6 µM (inactive) | 50.4 µM (inactive) | 27.1 µM (inactive) | – | 44 µM (inactive) | > 100 µM (inactive) | 30.8 µM (inactive) | 29.6 µM (inactive) | 44.7 µM (inactive) | 26.9 µM (inactive) | – | 41.6 µM (inactive) | 34.1 µM (inactive) | 25.7 µM (inactive) | – |
| O=c1[nH]c(C2CCCCC2)nc2cc(Cl)ccc12 | > 100 µM (inactive) | > 100 µM (inactive) | > 100 µM (inactive) | > 100 µM (inactive) | > 100 µM (inactive) | 58.2 µM (inactive) | > 100 µM (inactive) | > 100 µM (inactive) | > 100 µM (inactive) | > 100 µM (inactive) | – | > 100 µM (inactive) | > 100 µM (inactive) | > 100 µM (inactive) | – | > 100 µM (inactive) | 44 µM (inactive) | > 100 µM (inactive) |
| COc1c(NC(C)=O)cc(C)cc1NC(C)=O | > 100 µM (inactive) | > 100 µM (inactive) | > 100 µM (inactive) | > 100 µM (inactive) | > 100 µM (inactive) | – | > 100 µM (inactive) | – | > 100 µM (inactive) | > 100 µM (inactive) | > 100 µM (inactive) | > 100 µM (inactive) | > 100 µM (inactive) | – | > 100 µM (inactive) | > 100 µM (inactive) | > 100 µM (inactive) | > 100 µM (inactive) |
| Cc1nc(C(N)=O)c(N)n1CCN1CCN(C(=O)CCCCCCCCCCNC2NC=Nc3[nH]cnc32)CC1 (stereo not given) | 51.2 µM (inactive) | 11.6 µM (inactive) | 80.7 µM (inactive) | 14.3 µM (inactive) | 33.9 µM (inactive) | > 100 µM (inactive) | > 10 µM (inactive) | > 100 µM (inactive) | 90.2 µM (inactive) | 43.4 µM (inactive) | > 100 µM (inactive) | – | 73.5 µM (inactive) | > 100 µM (inactive) | 25.7 µM (inactive) | 41 µM (inactive) | 16.3 µM (inactive) | 13.6 µM (inactive) |

Reference: ChEMBL document CHEMBL1201862, “PubChem BioAssay data set” (2004)
